Experimental data as given in EP4741389A1, “KAT6 INHIBITOR” (Shanghai Qilu Pharmaceutical Research and Development …, priority 2023, dated 2025).

Legend:
ZR-75-1 cells = experiment: ZR-75-1 cell proliferation assay (CellTiter-Glo); format: cell-based; conditions: Homo sapiens, ZR-75-1, 240 h, total culture period of 10 days, read-out: ZR-75-1 Proliferation Inhibition IC50
Experimental: II. ZR-75-1 cell proliferation assay
• 1. ZR-75-1 cells were seeded in 96-well plates and cultured overnight in an incubator at 37°C & 5% CO2. • 2. Compounds were diluted using culture medium and added to the 96-well plates. The plates were placed back into the incubator for continued culture. Every 5 days, the cells were trypsinized, counted, and re-seeded. After the cells had fully adhered, compounds were added again for incubation, for a total culture period of 10 days. • 3. After the culture period, 60 µL of CellTiter-Glo reagent (Promega, G7573) was added to each well. The plates were protected from light and shaken for 2 minutes to lyse the cells, followed by further incubation at room temperature, protected from light, for 30 minutes. • 4. Luminescence signals were read using a BMG PHERAstar FSX. IC50 values were calculated by nonlinear regression using a four-parameter logistic equation in GraphPad Prism 8 software.

[1] = system: ZR-75-1 H3K23 Acetylation; experiment: Histone H3 acetylation assay (H3K23 acetylation in ZR-75-1 cells); format: cell-based; conditions: Homo sapiens, 72 hours incubation, Odyssey CLx fluorescence, read-out: ZR-75-1 H3K23 Acetylation Inhibition IC50
Experimental: III. Histone H3 acetylation assay
• 1. ZR-75-1 cells were seeded at 5000 cells/40 µL per well in 384-well plates and cultured overnight in an incubator at 37°C & 5% CO2. • 2. 40 nL of serially diluted compounds were added to the 384-well plates, followed by further incubation for 72 hours. • 3. The supernatant was discarded, and 8 w/v% paraformaldehyde (final concentration was 4 w/v%) was added directly to the wells to fix the cells at room temperature. • 4. After washing twice with PBS, a permeabilization agent (40 µL of methanol) was added and incubated for 10 minutes to permeabilize the cell membranes. • 5. After washing twice with PBS, a blocking buffer was added and incubated at room temperature for 1 hour for blocking. • 6. The blocking buffer was discarded, and 20 µL of primary antibodies (recombinant Anti-Histone H3 (acetyl K23) antibody and Anti-Histone H4 antibody) diluted in blocking buffer (1:1000 by volume dilution) were added, followed by incubation at 4°C overnight. • 7. After washing three times with PBST (0.05 vol% Tween-20 in PBS), 20 µL of fluorescent secondary antibodies (IRDye 680RD Goat anti-MOUSE, Licor, 926-68070; IRDye 800CW Goat anti-Rabbit, Licor, 926-32211) diluted in blocking buffer (1:2000 by volume dilution) were added, followed by incubation at room temperature, protected from light, for 1 hour. Then, the plates were washed three times with PBST. • 8. Scanning was performed using an Odyssey CLx, and the fluorescence signal value for each well was quantified. IC50 values were calculated by nonlinear regression using a four-parameter logistic equation in GraphPad Prism 8 software.

KAT6A = target: T1, KAT6A (Homo sapiens, UniProt Q92794); experiment: KATs acetyltransferase enzyme activity assay (TR-FRET), KAT6A; format: biochemical; conditions: Biotin-H3 (1-21) and AcCOA, 90 minutes at room temperature
T1 construct: purchased Active Motif 81223
T1 sequence (Q92794 488-778 limits assumed): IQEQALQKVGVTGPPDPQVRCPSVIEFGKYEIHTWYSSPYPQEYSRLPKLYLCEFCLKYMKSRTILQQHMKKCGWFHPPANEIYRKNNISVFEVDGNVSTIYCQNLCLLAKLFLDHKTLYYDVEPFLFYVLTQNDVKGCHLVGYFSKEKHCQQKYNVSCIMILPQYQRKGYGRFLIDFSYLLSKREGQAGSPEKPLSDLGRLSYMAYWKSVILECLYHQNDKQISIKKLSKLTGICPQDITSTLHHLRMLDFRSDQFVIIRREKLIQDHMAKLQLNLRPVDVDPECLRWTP
Experimental: (§1) I. KATs acetyltransferase enzyme activity assay
• 1. The inhibitory effect of compounds on the acetyltransferase activity of KATs was evaluated using the Time-Resolved Fluorescence Resonance Energy Transfer (TR-FRET) assay. The assay was conducted in 384-well plates using Tris-HCl buffer. • 2. Compounds were diluted in DMSO and transferred to 384-well plates. […] Subsequently, 2.5 µL of a mixture containing KAT6A/KAT6B: Biotin-H3 (1-21, Genscript, C6829GL060) or KAT5/7/8: Bio-H4 (1-25, Genscript, C736BGL100) AcCOA (Sigma, A2056) was added, and the reaction proceeded at room temperature for 90 minutes. • 4. After the reaction, a detection mixture containing Europium-anti-acetyl-Histone H4 Lysine (H4Kac pan) Antibody (Perkin Elmer, TRF0412) and LANCE Ultra ULight™-Streptavidin in LANCE™ Detection buffer (10x) (Perkin Elmer, CR97-100) was added, followed by incubation at room temperature for 60 minutes. • 5. […] IC50 values were calculated by nonlinear regression using a four-parameter logistic equation in GraphPad Prism 8 software.

KAT6B = target: T2, KAT6B (Homo sapiens, UniProt Q8WYB5); experiment: KATs acetyltransferase enzyme activity assay (TR-FRET), KAT6B; format: biochemical; conditions: Biotin-H3 (1-21) and AcCOA, 90 minutes at room temperature
T2 construct: purchased Active Motif 81224
T2 sequence (Q8WYB5 whole entry): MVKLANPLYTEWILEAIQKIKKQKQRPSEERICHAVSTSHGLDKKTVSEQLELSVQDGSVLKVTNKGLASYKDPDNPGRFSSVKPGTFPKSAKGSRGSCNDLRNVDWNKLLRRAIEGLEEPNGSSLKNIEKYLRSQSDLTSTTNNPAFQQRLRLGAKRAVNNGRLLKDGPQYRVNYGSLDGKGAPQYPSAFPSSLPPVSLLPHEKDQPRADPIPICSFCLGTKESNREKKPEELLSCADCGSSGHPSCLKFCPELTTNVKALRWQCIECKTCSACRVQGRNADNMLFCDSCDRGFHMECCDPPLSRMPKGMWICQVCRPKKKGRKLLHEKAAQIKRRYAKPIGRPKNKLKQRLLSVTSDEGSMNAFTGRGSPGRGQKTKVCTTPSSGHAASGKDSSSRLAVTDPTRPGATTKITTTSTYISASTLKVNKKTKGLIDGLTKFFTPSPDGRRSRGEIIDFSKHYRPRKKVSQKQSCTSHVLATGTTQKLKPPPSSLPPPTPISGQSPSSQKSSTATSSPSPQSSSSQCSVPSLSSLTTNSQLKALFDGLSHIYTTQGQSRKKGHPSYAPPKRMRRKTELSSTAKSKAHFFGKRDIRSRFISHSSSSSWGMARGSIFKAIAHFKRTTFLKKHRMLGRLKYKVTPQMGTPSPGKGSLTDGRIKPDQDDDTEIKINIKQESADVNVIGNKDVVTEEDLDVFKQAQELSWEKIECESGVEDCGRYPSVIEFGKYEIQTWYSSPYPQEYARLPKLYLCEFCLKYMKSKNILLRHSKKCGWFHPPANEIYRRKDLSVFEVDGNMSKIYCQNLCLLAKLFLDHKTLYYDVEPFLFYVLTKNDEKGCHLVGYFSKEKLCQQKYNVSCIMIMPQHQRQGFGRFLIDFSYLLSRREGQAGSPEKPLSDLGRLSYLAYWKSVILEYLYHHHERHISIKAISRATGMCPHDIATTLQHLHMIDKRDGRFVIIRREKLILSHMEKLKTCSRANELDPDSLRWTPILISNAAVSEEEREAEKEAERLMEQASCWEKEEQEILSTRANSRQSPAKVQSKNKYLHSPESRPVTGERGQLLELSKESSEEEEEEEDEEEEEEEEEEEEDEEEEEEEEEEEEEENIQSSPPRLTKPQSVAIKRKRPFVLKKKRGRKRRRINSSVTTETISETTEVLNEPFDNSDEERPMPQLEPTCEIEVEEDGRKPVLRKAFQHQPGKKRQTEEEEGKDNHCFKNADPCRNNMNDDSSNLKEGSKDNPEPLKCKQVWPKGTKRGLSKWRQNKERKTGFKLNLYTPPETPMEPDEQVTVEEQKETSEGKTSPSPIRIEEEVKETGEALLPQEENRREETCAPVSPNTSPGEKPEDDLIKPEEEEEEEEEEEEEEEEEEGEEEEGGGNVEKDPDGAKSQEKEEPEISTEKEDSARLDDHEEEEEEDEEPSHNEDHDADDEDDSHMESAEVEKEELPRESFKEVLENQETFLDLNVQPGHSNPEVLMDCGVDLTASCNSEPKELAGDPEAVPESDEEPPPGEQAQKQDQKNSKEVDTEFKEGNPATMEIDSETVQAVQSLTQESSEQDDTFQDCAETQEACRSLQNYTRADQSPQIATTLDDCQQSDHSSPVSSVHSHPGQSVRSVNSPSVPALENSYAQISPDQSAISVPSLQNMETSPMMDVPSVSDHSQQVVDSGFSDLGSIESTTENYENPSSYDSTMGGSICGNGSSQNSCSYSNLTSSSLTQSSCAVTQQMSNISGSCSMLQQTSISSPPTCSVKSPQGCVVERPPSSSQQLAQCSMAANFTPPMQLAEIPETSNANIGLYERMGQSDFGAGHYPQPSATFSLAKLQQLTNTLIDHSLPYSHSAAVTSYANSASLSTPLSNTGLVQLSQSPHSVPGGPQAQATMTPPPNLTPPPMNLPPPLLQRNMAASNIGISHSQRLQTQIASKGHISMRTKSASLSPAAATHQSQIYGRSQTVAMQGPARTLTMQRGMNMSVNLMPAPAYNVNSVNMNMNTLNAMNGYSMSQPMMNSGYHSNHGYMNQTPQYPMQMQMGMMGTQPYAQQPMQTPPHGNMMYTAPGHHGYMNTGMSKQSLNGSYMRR
Experimental: as §1
• 1. The inhibitory effect of compounds on the acetyltransferase activity of KATs was evaluated using the Time-Resolved Fluorescence Resonance Energy Transfer (TR-FRET) assay. The assay was conducted in 384-well plates using Tris-HCl buffer. • 2. Compounds were diluted in DMSO and transferred to 384-well plates. Enzyme solutions (KAT6: active motif (kit), 81223; KAT6B: active motif, 81224; KAT5: SignalChem, K314-380G; KAT7: ICE, S2210F-H21HF; KAT8: Active motif, 81225) were added and the mixture was incubated at room temperature for 15 minutes. • 3. Subsequently, 2.5 µL of a mixture containing KAT6A/KAT6B: Biotin-H3 (1-21, Genscript, C6829GL060) or KAT5/7/8: Bio-H4 (1-25, Genscript, C736BGL100) AcCOA (Sigma, A2056) was added, and the reaction proceeded at room temperature for 90 minutes. • 4. After the reaction, a detection mixture containing Europium-anti-acetyl-Histone H4 Lysine (H4Kac pan) Antibody (Perkin Elmer, TRF0412) and LANCE Ultra ULight™-Streptavidin in LANCE™ Detection buffer (10x) (Perkin Elmer, CR97-100) was added, followed by incubation at room temperature for 60 minutes. • 5. HTRF signals were measured using a BMG PHERAstar FSX (Ratio: 665nm/620nm). IC50 values were calculated by nonlinear regression using a four-parameter logistic equation in GraphPad Prism 8 software.

SMILES	IC50 [1] [nM]	IC50 (KAT6A) [nM]	IC50 (KAT6B) [nM]	IC50 (ZR-75-1 cells) [nM]
COc1ccc2c(c1S(=O)(=O)Nc1noc3cc(Cn4cccn4)cc(OC)c13)OCCCN2C [Compound 41, N-(6-((1H-Pyrazol-1-yl)methyl)-4-methoxybenzo[d]isoxazol-3-yl)-8-methoxy-5-methyl-2,3,4,5-tetrahydrobenzo[b][1,4]oxazepine-9-sulfonamide]	20.2	8.9	97.5	4.8
COc1ccc2c(c1S(=O)(=O)Nc1noc3cc(Cn4cccn4)c(F)c(OC)c13)OCC1CC21 (stereo not drawn) [Compound 30, N-(6-((1H-Pyrazol-1-yl)methyl)-5-fluoro-4-methoxybenzo[d]isoxazol-3-yl)-5-methoxy-1,1a,2,7b-tetrahydrocyclopropa[c]chromene-4-sulfonamide]	0.8	0.8	1.8	0.15
COc1ccc2c(c1S(=O)(=O)Nc1noc3cc(Cn4cccn4)c4c(c13)OCC4)OCC1CC21 (stereo not drawn) [Compound 37, N-(4-((1H-Pyrazol-1-yl)methyl)-2,3-dihydrobenzofuro[7,6-d]isoxazol-8-yl)-5-methoxy-1,1a,2,7b-tetrahydrocyclopropa[c]chromene-4-sulfonamide]	1.2	1.6	4.1	0.4
COc1ccc2c(c1S(=O)(=O)Nc1noc3cc(Cn4cccn4)c(F)cc13)OCC1CC21 (single isomer, unassigned) [Compound 34]	0.4	1.2	2.2	0.04
CCc1c(Cn2cccn2)cc2onc(NS(=O)(=O)c3c(OC)ccc4c3OCC3CC43)c2c1OC (stereo not drawn) [Compound 27, N-(6-((1H-Pyrazol-1-yl)methyl)-5-ethyl-4-methoxybenzo[d]isoxazol-3-yl)-5-methoxy-1,1a,2,7b-tetrahydrocyclopropa[c]chromene-4-sulfonamide]	27.1	1.3	8.9	11.5
COc1cc2c(cc1S(=O)(=O)Nc1noc3cc(Cn4cccn4)cc(OC)c13)OCCCO2 [Compound 7, N-(6-((1H-Pyrazol-1-yl)methyl)-4-methoxybenzo[d]isoxazol-3-yl)-8-methoxy-3,4-dihyd ro-2H-benzo[b][1,4]dioxepine-7-sulfonamide]	8.6	2.7	19.2	2.4
CCc1c(Cn2cccn2)cc2onc(NS(=O)(=O)c3c(OC)ccc4c3OCC43CC3)c2c1OC [Compound 28, N-(6-((1H-Pyrazol-1-yl)methyl)-5-ethyl-4-methoxybenzo[d]isoxazol-3-yl)-6-methoxy-2 H-spiro[benzofuran-3,1'-cyclopropane]-7-sulfonamide]	37.7	2.2	12.3	16.6
COc1cc2c(cc1S(=O)(=O)Nc1noc3cc(Cn4cccn4)cc(OC)c13)C1CC1CO2 (stereo not drawn) [Compound 6, N-(6-((1H-Pyrazol-1-yl)methyl)-4-methoxybenzo[d]isoxazol-3-yl)-5-methoxy-1,1a,2,7b-tetrahydrocyclopropa[c] chromene-6-sulfonamide]	5.3	1.3	11.8	0.6
COc1ccc2c(c1S(=O)(=O)Nc1noc3cc(Cn4cccn4)c(OC)c(C)c13)OCC21CC1 [Compound 39, N-(6-((1H-Pyrazol-1-yl)methyl)-5-methoxy-4-methylbenzo[d]isoxazol-3-yl)-6-methoxy-2H-spiro[benzofuran-3,1'-cyclopropane]-7-sulfonamide]	23.7	2.2	37.6	2.6
COc1ccc2c(c1S(=O)(=O)Nc1noc3cc(Cn4cccn4)cc(OC)c13)OCC21COC1 [Compound 49, N-(6-((1H-Pyrazol-1-yl)methyl)-4-methoxybenzo[d]isoxazol-3-yl)-6-methoxy-2H-spiro[benzofuran-3,3'-oxetane]-7-sulfonamide]	4.2	3	23.1	
COc1ccc2c(c1S(=O)(=O)Nc1noc3cc(Oc4nccs4)cc(OC)c13)OC[C@@H]1C[C@H]21 [Compound 47, (1aR,7bS)-5-Methoxy-N-(4-methoxy-6-(thiazol-2-yloxy)benzo[d]isoxazol-3-yl)-1,1a,2,7 b-tetrahydrocyclopropa[c]chromene-4-sulfonamide]	3.4	0.8	1.5	

Further lines, with some results ahead:

IC50 [1] [nM]	IC50 (KAT6A) [nM]	IC50 (KAT6B) [nM]	SMILES	IC50 (ZR-75-1 cells) [nM]
34.3			COc1ccc2c(c1S(=O)(=O)Nc1noc3cc(Cn4cccn4)c(OC(F)F)cc13)OCCCO2 [Compound 13, N-(6-((1H-pyrazol-1-yl)methyl)-5-(difluoromethoxy)benzo[d]isoxazol-3-yl)-7-methoxy-3,4-dihydro-2H-benzo [b] [1,4] dioxepine-6-sulfonamide]	14.2
4.5	6.5	40	COc1ccc2c(c1S(=O)(=O)Nc1noc3cc(Cn4cccn4)c(F)cc13)OCCCO2 [Compound 12, N-(6-((1H-Pyrazol-1-yl)methyl)-5-fluorobenzo[d]isoxazol-3-yl)-7-methoxy-3,4-dihydro-2H-benzo [b] [1,4] dioxepine-6-sulfonamide]	1.4
1.1	1.7	9.3	COc1cc2c(NS(=O)(=O)c3c(OC)ccc4c3OCCCO4)noc2cc1Cn1cccn1 [Compound 15, N-(6-((1H-Pyrazol-1-yl)methyl)-5-methoxybenzo[d]isoxazol-3-yl)-7-methoxy-3,4-dihyd ro-2H-benzo[b][1,4] dioxepine-6-sulfonamide]	0.6
11.5	1.4	12.7	COc1ccc2c(c1S(=O)(=O)Nc1noc3cc(Cn4cccn4)c(C4CC4)cc13)OCCCO2 [Compound 14, N-(6-((1H-Pyrazol-1-yl)methyl)-5-cyclopropylbenzo[d]isoxazol-3-yl)-7-methoxy-3,4-di hydro-2H-benzo[b][1,4]dioxepine-6-sulfonamide]	8.6
4.6	3	23.3	COc1ccc2c(c1S(=O)(=O)Nc1noc3cc(Cn4cccn4)c(F)c(OC)c13)OCCCO2 [Compound 29, N-(6-((1H-Pyrazol-1-yl)methyl)-5-fluoro-4-methoxybenzo[d]isoxazol-3-yl)-7-methoxy-3,4-dihydro-2H-benzo[b][1,4]dioxepine-6-sulfonamide]	0.6
